Assays:
EZH1 = target: T1, EZH1 (Homo sapiens, UniProt Q92800); assay: Inhibitory activity against EZH1 methyltransferase (radiometric scintillation proximity assay); type: biochemical; settings: 2.3 nmol/L enzyme, 90 minutes, room temperature;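 also: Read-out is methylation of a substrate peptide, captured on streptavidin-coated SPA beads and counted by scintillation, in Tris-HCl buffer at pH 8.0 with 1% DMSO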
T1 construct: purchased Reaction Biology Corp. (contract assay)
Protocol: (§1) The inhibitory activities of the synthetic compounds against EZH1 or EZH2 methyltransferase were measured. The experiment was conducted by Reaction Biology Corp., and the activity of EZH1 or EZH2 was measured using a radiometric scintillation proximity assay. […] The reaction buffer consisted of 50 mmol/L Tris-HCl (pH 8.0), 50 mmol/L NaCl, 1 mmol/L EDTA, 1 mmoL/L DTT, 1 mmol/L PMSF, and 1% DMSO. Trichloroacetic acid was added to terminate the reaction, and PVT streptavidin-coated SPA beads were added to each reaction solution, followed by further reaction at room temperature for 1 hour again. The methylation value of the substrate peptide was measured using the TopCount NXT plate reader.

EZH2 = EZH2 (Homo sapiens, UniProt Q15910); assay: Inhibitory activity against EZH2 methyltransferase (radiometric scintillation proximity assay); settings: Enzyme inhibitory activity (IC50, nM) EZH2, 2.3 nmol/L enzyme, 90 minutes, room temperature;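 also: Read-out is substrate peptide methylation, captured on streptavidin-coated SPA beads and counted by scintillation, with the reaction run in Tris-HCl buffer at pH 8.0 containing 1% DMSO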
Chain of EZH2 (Q15910 whole entry): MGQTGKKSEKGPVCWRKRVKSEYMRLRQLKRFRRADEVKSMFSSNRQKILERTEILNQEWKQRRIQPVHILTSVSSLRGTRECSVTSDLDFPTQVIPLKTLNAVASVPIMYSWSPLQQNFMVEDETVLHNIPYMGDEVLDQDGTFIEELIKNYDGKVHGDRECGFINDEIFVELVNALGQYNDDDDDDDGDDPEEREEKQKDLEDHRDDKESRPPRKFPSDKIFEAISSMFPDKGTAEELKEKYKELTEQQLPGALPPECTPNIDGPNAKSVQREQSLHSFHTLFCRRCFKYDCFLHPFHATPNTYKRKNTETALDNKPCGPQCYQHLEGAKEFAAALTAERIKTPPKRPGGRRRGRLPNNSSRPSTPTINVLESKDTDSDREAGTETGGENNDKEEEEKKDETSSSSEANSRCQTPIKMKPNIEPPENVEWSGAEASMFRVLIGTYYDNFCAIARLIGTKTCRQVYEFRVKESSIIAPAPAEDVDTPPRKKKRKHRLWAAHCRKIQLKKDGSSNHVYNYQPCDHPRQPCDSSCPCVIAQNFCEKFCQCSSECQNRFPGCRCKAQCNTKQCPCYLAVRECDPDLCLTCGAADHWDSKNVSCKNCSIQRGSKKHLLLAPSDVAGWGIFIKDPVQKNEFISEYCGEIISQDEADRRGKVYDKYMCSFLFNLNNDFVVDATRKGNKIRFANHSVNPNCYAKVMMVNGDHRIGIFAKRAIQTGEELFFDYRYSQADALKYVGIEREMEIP
Chain of EZH2 (O75530 whole entry partner): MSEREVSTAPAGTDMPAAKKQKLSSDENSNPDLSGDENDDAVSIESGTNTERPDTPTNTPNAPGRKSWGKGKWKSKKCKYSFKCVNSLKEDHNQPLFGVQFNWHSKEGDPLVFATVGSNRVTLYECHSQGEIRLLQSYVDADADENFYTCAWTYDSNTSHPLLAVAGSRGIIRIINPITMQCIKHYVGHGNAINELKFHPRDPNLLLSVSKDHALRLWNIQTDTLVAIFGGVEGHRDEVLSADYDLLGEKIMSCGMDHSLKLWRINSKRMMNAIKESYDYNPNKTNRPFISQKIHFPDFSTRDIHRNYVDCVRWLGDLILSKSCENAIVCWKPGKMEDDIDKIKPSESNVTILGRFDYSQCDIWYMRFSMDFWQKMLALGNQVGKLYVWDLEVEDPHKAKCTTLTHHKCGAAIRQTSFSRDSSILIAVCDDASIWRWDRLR
Chain of EZH2 (Q15022 whole entry partner): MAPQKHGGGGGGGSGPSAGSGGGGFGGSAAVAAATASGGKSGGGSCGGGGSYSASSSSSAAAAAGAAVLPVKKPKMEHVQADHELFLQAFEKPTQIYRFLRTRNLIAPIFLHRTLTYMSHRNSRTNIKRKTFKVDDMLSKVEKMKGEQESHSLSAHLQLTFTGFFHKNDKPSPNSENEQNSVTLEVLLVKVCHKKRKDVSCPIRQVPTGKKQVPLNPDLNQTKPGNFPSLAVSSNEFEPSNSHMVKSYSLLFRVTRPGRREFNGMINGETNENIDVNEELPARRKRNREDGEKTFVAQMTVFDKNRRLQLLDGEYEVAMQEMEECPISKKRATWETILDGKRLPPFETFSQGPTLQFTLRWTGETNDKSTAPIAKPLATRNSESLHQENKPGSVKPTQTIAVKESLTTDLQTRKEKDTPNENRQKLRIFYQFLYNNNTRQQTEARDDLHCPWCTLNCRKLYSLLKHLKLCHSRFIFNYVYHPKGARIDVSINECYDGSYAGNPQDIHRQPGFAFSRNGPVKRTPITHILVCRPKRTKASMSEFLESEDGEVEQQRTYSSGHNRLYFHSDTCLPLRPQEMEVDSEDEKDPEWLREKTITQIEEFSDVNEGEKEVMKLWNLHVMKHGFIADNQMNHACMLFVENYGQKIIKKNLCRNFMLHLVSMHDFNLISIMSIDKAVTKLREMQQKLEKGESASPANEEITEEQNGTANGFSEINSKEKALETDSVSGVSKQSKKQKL
Chain of EZH2 (Q09028 whole entry partner): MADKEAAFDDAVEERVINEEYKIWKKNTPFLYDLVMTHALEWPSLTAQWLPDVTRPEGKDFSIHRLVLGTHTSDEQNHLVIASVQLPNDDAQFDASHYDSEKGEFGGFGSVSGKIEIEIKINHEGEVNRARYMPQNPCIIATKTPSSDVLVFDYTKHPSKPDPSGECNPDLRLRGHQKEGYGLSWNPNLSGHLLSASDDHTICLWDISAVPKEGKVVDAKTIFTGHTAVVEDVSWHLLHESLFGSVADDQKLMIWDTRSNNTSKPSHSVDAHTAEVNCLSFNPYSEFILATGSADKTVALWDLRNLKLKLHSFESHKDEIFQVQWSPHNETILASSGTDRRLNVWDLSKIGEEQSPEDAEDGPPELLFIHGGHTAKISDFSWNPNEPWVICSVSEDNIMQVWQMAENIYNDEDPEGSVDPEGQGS
Chain of EZH2 (Q6ZN18 whole entry partner): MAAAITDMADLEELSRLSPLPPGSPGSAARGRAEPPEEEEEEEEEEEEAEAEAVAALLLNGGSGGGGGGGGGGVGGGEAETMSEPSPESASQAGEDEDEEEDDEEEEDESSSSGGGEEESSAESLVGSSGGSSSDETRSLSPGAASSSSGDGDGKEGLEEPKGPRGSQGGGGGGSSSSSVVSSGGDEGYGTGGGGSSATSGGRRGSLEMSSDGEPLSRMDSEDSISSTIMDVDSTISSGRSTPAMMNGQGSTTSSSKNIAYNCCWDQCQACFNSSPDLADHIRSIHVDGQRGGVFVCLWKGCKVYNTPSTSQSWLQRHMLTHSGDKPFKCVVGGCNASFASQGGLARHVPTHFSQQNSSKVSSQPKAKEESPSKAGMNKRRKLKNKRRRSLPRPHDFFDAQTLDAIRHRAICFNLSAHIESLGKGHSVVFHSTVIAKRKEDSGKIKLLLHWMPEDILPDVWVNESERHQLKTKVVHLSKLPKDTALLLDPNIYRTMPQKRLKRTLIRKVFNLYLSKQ
Protocol: as §1

[1] = tested on: KARPAS-422 (EZH2 Y641N mutation); assay: Cell growth inhibition test, KARPAS-422; type: cell-based; settings: Homo sapiens, KARPAS-422, 168 h, KARPAS-422, culture time 7 days; read-out: Cell growth inhibitory activity (GI50, nM) KARPAS-422 (EZH2 Y641N mutation)
Protocol: Each type of the cultured cells was seeded in 6-well plates or 48-96 well plates, and subculture or medium replacement was performed every 3 to 4 days. Next, the cells were subcultured for a total of 7 to 14 days, and then seeded in 96-well plates. 3 to 5 days before the measurement of the effect, the cells were seeded in 96-well plates, and then the absorbance (Tz) on the day of seeding was measured. The absorbance after the reaction was measured by the plate reader device Synergy NeoAlpha (Biotek) using Cell-Titer-Glo Cell Viability Assay (Promega, G7573) according to the attached manual. Based on the absorbance (Tz) measured on the seeding day and the absorbance of each of the DMSO-treated group (C) and the sample-added group (Ti) measured on the day of effect determination, the percentage of cell proliferation inhibition was calculated according to the following Equation 1. [(Ti−Tz)/(C−Tz)]×100 for concentrations for which Ti≥Tz […] for concentrations for which Ti<Tz. [Equation 1]

T1 sequence (Q92800 whole entry): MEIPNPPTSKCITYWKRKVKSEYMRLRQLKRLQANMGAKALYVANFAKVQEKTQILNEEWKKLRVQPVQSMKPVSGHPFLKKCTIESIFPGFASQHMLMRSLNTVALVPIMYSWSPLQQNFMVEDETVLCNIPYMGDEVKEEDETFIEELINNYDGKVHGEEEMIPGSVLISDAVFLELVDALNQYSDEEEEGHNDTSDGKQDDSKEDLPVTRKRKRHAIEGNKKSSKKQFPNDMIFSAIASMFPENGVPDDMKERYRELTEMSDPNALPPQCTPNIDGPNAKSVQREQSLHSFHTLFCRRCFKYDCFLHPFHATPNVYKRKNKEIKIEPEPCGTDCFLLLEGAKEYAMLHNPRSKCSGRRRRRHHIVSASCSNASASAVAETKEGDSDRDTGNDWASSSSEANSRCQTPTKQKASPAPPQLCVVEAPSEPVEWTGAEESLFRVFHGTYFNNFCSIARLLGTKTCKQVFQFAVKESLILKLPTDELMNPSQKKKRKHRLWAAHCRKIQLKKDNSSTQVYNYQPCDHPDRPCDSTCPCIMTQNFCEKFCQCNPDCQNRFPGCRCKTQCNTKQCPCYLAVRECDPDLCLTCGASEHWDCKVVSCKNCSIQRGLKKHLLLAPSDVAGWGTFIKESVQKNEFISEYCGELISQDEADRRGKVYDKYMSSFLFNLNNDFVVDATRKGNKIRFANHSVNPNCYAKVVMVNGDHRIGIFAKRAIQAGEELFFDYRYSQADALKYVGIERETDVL
T1 sequence (O75530 whole entry partner): as the sequence (O75530 whole entry partner) above
T1 sequence (Q15022 whole entry partner): as the sequence (Q15022 whole entry partner) above
T1 sequence (Q09028 whole entry partner): as the sequence (Q09028 whole entry partner) above
T1 sequence (Q6ZN18 whole entry partner): as the sequence (Q6ZN18 whole entry partner) above

| IC50 (EZH1) [nM] | IC50 (EZH2) [nM] | GI50 [1] [nM] | Compound |
| --- | --- | --- | --- |
| 97.6 | 14.3 |  | Cc1cc(C)c(CN2CCc3cc4c(c(C)c3C2=O)OC(C)([C@H]2CC[C@H](N(C)C)CC2)O4)c(=O)[nH]1 (stereo partly drawn) [Compound 1, 6-((4,6-dimethyl-2-oxo-1,2-dihydropyridin-3-yl)methyl)-2(trans-4-(dimethylamino)cyclohexyl)-2,4-dimethyl-7,8-dihydro-[1,3]dioxolo[4,5-g]isoquinolin-5(6H)-one] |
| 310 | 3.9 |  | Cc1cc(C)c(CN2CCc3c(Cl)c4c(c(C)c3C2=O)OC(C)(c2c(C)noc2C)O4)c(=O)[nH]1 (centres unmarked) [Compound 27] |
| 34 | 0.4 |  | Cc1cc(C)c(CN2CCc3c(C)c4c(c(C)c3C2=O)OC(C)(C2CCCCC2)O4)c(=O)[nH]1 (centres unmarked) [Compound 44, 2-cyclohexyl-6-((4,6-dimethyl-2-oxo-1,2-dihydropyridin-3-yl)methyl)-2,4,9-trimethyl-7,8-dihydro-[1,3]dioxolo[4,5-g]isoquinolin-5(6H)-one] |
| 371 | 7.9 |  | Cc1cc(C)c(CN2CCc3cc4c(cc3C2=O)OC(C)([C@H]2CC[C@H](N(C)C)CC2)O4)c(=O)[nH]1 (stereo partly drawn) [Compound 2, 6-((4,6-dimethyl-2-oxo-1,2-dihydropyridin-3-yl)methyl)-2(trans-4-(dimethylamino)cyclohexyl)-2-methyl-7,8-dihydro-[1,3]dioxolo[4,5-g]isoquinolin-5(6H)-one] |
| 166 | 11 |  | Cc1cc(C)c(CN2CCc3c(Cl)c4c(c(C)c3C2=O)OC(C)(c2ccc(N(C)C)cc2)O4)c(=O)[nH]1 (centres unmarked) [Compound 25, 9-chloro-6-((4,6-dimethyl-2-oxo-1,2-dihydropyridin-3-yl)methyl)-2-(4-(dimethylamino)phenyl)-2,4-dimethyl-7,8-dihydro-[1,3]dioxolo[4,5-g]isoquinolin-5(6H)-one] |
|  | 4.4 | > 1000 | Cc1cc(C)c(CN2CCc3c(Cl)c4c(c(C)c3C2=O)OC(C)(C2CCCC2)O4)c(=O)[nH]1 (centres unmarked) [Compound 23, 9-chloro-2-cyclopentyl-6-((4,6-dimethyl-2-oxo-1,2-dihydropyridin-3-yl)methyl)-2,4-dimethyl-7,8-dihydro-[1,3]dioxolo[4,5-g]isoquinolin-5(6H)-one] |
| 16 | 9.7 |  | CCN(CC)[C@H]1CC[C@H](C2(C)Oc3c(C)c4c(c(C)c3O2)C(=O)N(Cc2c(OC)cc(C)[nH]c2=O)CC4)CC1 (stereo partly drawn) [Compound 46, 2-(trans-4-(diethylamino)cyclohexyl)-6-((4-methoxy-6-methyl-2-oxo-1,2-dihydropyridin-3-yl)methyl)-2,4,9-trimethyl-7,8-dihydro-[1,3]dioxolo[4,5-g]isoquinolin-5(6H)-one] |
| 54 | 4.4 |  | Cc1cc(C)c(CN2CCc3c(C)c4c(c(C)c3C2=O)OC(C)([C@H]2CC[C@H](N)CC2)O4)c(=O)[nH]1 (stereo partly drawn) [Compound 38, 2-(trans-4-aminocyclohexyl)-6-((4,6-dimethyl-2-oxo-1,2-dihydropyridin-3-yl)methyl)-2,4,9-trimethyl-7,8-dihydro-[1,3]dioxolo[4,5-g]isoquinolin-5(6H)-one] |
| 18 | 6.2 |  | CCN[C@H]1CC[C@H](C2(C)Oc3c(C)c4c(c(C)c3O2)C(=O)N(Cc2c(OC)cc(C)[nH]c2=O)CC4)CC1 (stereo partly drawn) [Compound 45, 2-(trans-4-(ethylamino)cyclohexyl)-6-((4-methoxy-6-methyl-2-oxo-1,2-dihydropyridin-3-yl)methyl)-2,4,9-trimethyl-7,8-dihydro-[1,3]dioxolo[4,5-g]isoquinolin-5(6H)-one] |
| 26 | 5.6 |  | Cc1cc(C)c(CN2CCc3c(c(C)c4c(c3-c3ccc(CN5CCOCC5)cc3)OC(C)([C@H]3CC[C@H](N(C)C)CC3)O4)C2=O)c(=O)[nH]1 (stereo partly drawn) [Compound 55, 6-((4,6-dimethyl-2-oxo-1,2-dihydropyridin-3-yl)methyl)-2-(trans-4-(dimethylamino)cyclohexyl)-2,4-dimethyl-9-(4-(morpholinomethyl)phenyl)-7,8-dihydro-[1,3]dioxolo[4,5-g]isoquinolin-5(6H)-one] |
